Test [1] concerns horses. The test is described as follows: Trial of methoxyflurane administered to horses at the end of anaesthesia to modify recovery. The format is in vivo, horse. Also on record: 1st Movt / Stern. / Stnd / Atax / Walk out: unit not given here. How it is done:
Trial of methoxyflurane administered to horses at the end of anaesthesia, attempting to modify recovery:
[…] Horses recovering from isoflurane typically attempt to stand in 10 to 15 minutes, usually fall down and try to get back up 2 or 3 times (sometimes violent, resulting in injuries from skin abrasions to fractured limbs) and are then standing 15 to 20 minutes after anaesthetic administration ceased. […] Halothane recoveries are less violent and result in less likelihood of injury.
Initially trials were also performed in anattempt to determine the dose and duration of MOF administration that would result in improved quality of recovery.
The last 8 horses were administered with ever lower doses of MOF for less time with better results (see table below). […] The lowest dose produced a good result.

The subject of test [2] is horses. To be noted: typical; cited from earlier work.
[3] abbreviates: horse 338 kgs, 30 Mins. HAL anaesthesia, Methoxy volume not given.
Where [4] appears, read: horse 492 kgs, 90 Mins. HAL anaesthesia, Methoxy volume not given.
The mark [5] stands for this setting: horse 472 kgs, 130 Mins. ISO anaesthesia, Methoxy volume not given.
[6] abbreviates: horse 332 kgs, 135 Mins. ISO anaesthesia, Methoxy total 200 ml.
Where [7] appears, read: horse 462 kgs, 135 Mins. ISO anaesthesia, Methoxy total 350 ml.
Where [8] appears, read: horse 470 kgs, 85 Mins. ISO anaesthesia, Methoxy total 210 ml.
Where [9] appears, read: horse 492 kgs, 75 Mins. ISO anaesthesia, Methoxy total 540 ml.
Setting [10] is: horse 580 kgs, 16O Mins. ISO anaesthesia, Methoxy total 300 ml.

In the case of `FC(F)(F)C(Cl)Br` (centres unmarked) [HAL, halothane], in the test with horses [1] (setting [3]), the “1st Movt” value is listed as 27, the Atax result is “Fell”, the Comments entry is listed as “Stood/fell x 3” and the Stern. is 30. In the test on horses [1] (setting [3]), this compound returned a Stnd of 31 and a Walk out of 55. Moreover, in the test on horses [1] (setting [4]), the “1st Movt” value is 30, the Atax came out at 75, the Comments entry is listed as “Poor - flip over” and the Stern. is on record as 50(2). In the test on horses [1] (setting [4]), this compound had a Stnd of 65 and a Walk out of 85. Moreover, the “recovery duration in comparison with isoflurane” value in the test with horses [2] is given as “twice as long as isoflurane”.

Regarding `FC(F)OC(Cl)C(F)(F)F` (centres unmarked) [ISO, isoflurane], in the test with horses [1] (setting [5]), the “1st Movt” value worked out at 23, the Atax is listed as 78, the Comments result was “Try stand at 23” and the Stern. is reported as 32. For the same compound, in the test with horses [1] (setting [5]), the Stnd turned out to be 63 and the Walk out was determined as 100.

Take `COC(F)(F)C(Cl)Cl` [Methoxy, methoxyflurane]: the “1st Movt” value in the test on horses [1] (setting [6]) is on record as 17; in the test on horses [1] (setting [7]), 48; in the test on horses [1] (setting [8]), 5; in the test on horses [1] (setting [9]) it was 50; in the test with horses [1] (setting [10]), 37. Moreover, the Atax in the test with horses [1] (setting [6]) is on record as 30; with horses [1] (setting [7]) it was 59; in the test with horses [1] (setting [8]), 35; with horses [1] (setting [9]), 85; in the test with horses [1] (setting [10]) it was 85. Also, the Comments entry in the test with horses [1] (setting [6]) is recorded as “Good”; in the test on horses [1] (setting [7]), “Still 45 mm then”; in the test with horses [1] (setting [8]) it was 10x wobble then; in the test with horses [1] (setting [9]), “Stood 69- fell”. Moreover, the Stern. in the test on horses [1] (setting [6]) stood at 25; in the test with horses [1] (setting [8]), 14; in the test on horses [1] (setting [9]), 60; in the test with horses [1] (setting [10]), 60. Also, the Stnd in the test with horses [1] (setting [6]) was determined as 26; in the test on horses [1] (setting [7]) it was 49; in the test on horses [1] (setting [8]), 29; with horses [1] (setting [9]), 75; with horses [1] (setting [10]), 61. Moreover, the Walk out in the test on horses [1] (setting [6]) is on record as 41; in the test with horses [1] (setting [7]), 75; in the test on horses [1] (setting [8]) it was 55; with horses [1] (setting [9]), 100; with horses [1] (setting [10]) it was 90. For the same compound, the quality of recovery result in the test with horses [1] (initial trials (higher dose, longer administration), horses after isoflurane anaesthesia) was “long recoveries with marked ataxia”; in the test on horses [1] (last 8 horses, ever lower doses for less time), “less ataxia and a better quality recovery”; in the test with horses [1] (lowest dose, last horse), “good result”.

Values taken from patent US20170112784A1, “Method and Medicament for Pain Management” (priority 2007, published 2017).
